Results taken from patent US8962674B2 (Tokyo Institute of Technology, priority 2006, dated 2015).

How the values were obtained:
recombinant human BACE-1 = recombinant human BACE-1 (Homo sapiens (Human), UniProt P56817); assay: Calculation of 50% inhibitory concentration (IC50) of BACE-1 (Test Example 5); assay type: biochemical; details: 37° C., 2.5 hr, fluorescent substrate peptide
Procedure: Compounds were dissolved in 0.1 M sodium acetate buffer (with 150 mM sodium chloride, pH 4.5) to each concentration with DMSO (concentration of compounds: 0.3, 0.9, 3.0, 9.0, and 30.0). The final concentration of DMSO was 10%. The solution with no compound was used as a negative control. 15 μL of these solutions, recombinant human BACE-1 (1.0 U/ml, Invitrogen), and the fluorescent substrate peptide (2.5 nM) were mixed in a black 384-well plate (Costar). Then, mixtures were incubated in the dark at 37° C. for 2.5 hr. The fluorescence intensities of the mixtures were measured at 540 nm for excitation and at 590 nm for emission. The inhibition ratio was calculated as a percentage of the negative control. The sequence of the peptide was […] and labeled with Cy3 at Ser-1 and with Cy5Q at Lys-9. Final concentrations of compounds were as follows: […].

[1] = system: cerebral cortex cells of embryonic Wistar rat; assay: Cytoprotection from Aβ1-42-induced cell cytotoxicity, MTT (Test Example 4); assay type: cell-based; details: compound 24 hr, then 5 μM Aβ1-42 for 48 hr
Procedure: Cytoprotection from Aβ1-42-Induced Cell Cytotoxicity
Cerebral cortex was obtained from 19-20 day-old embryonic Wistar rat. The tissue was minced, dissociated using scalpel blades and Pasteur pipette, and centrifuged at 100 rpm. Precipitated cells were filtered using […] cell strainer, and single cells were prepared. These cells were suspended in Eagle's Minimum Essential Medium (EMEM) containing 10% Fetal bovine serum, and plated into 48-well tissue culture plates (Becton Dickinson) at 200 μL/well and 1.7×10^5 cells/cm^2. Cultures were incubated at 37° C. in a humidified atmosphere of 5% CO2.
After 3, 5, and 7 days in culture, the medium was replaced.
After 9 days, compounds were dissolved in DMSO and diluted in culture media so that the final concentration of DMSO in culture media was 0.1%, and each solution was added to each well at […] for 24 hr. The control solution contained 0.1% DMSO.
After 24 hr, Aβ1-42 was dissolved in a 0.1% NH3 solution at a concentration of 500 μM and diluted in culture media to a final concentration of 5 μM, and the Aβ solution was added to each well at […] for 48 hr. After 48 hr, cultures were treated with 0.5% MTT solution (Nacalai Tesque) for 35 min. The MTT solution was replaced with 2-propanol (200 μL), and the culture plates were shook to dissolve formazan. Absorption of the solution was measured at 570 nm.

Aβ1-42 = Aβ1-42 (Homo sapiens (Human), UniProt P05067); assay: Aβ aggregation inhibition assay, thioflavin T fluorescence (Test Example 2); assay type: biochemical; details: 24 hr at 37° C.
Aβ1-42, sequence (P05067 672-713): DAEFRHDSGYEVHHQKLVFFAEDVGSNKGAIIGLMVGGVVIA
Procedure: Aβ3-42 aggregation Inhibition Assay
Aβ1-42 was dissolved in a 0.1% NH3 solution at a concentration of 100 μM and centrifuged for 1.5 hr at 200,000 g, and the supernatant are used in the assay. […] The mixtures were incubated for 24 hr at 37° C. in a black 96-well plate.

[2] = target: recombinant human β-secretase (rhBACE-1) (Homo sapiens (Human), UniProt P56817); assay: β-Secretase enzyme inhibition assay (Test Example 1); assay type: biochemical; details: compound solution 3 μM (FIG. 1 legend: 1.0 μM), 37° C., 2 hr, fluorescent substrate peptide
recombinant human β-secretase (rhBACE-1), sequence (P56817 46-501): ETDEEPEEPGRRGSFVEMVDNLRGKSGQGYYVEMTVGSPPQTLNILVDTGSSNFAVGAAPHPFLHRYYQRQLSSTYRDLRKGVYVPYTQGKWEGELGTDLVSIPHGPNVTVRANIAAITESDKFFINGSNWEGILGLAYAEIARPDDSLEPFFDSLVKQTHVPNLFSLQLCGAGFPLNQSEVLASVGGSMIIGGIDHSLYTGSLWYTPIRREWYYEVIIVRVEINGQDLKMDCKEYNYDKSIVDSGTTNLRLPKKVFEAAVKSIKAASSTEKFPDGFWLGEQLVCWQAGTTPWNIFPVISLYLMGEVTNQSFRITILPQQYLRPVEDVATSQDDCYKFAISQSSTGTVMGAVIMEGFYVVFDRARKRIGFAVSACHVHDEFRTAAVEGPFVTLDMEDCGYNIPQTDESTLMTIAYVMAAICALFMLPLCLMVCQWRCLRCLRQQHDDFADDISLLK
Procedure: β-Secretase Enzyme Inhibition Assay
Compounds were dissolved in dimethylsulfoxide (DMSO), and further diluted in 0.1 M sodium acetate buffer (with 150 mM sodium chloride, pH 4.5). The solution with no compound was used as a negative control. Then, 100 μL of these solutions (compound concentration: 3 μM), 1 μL of recombinant human β-secretase (rhBACE-1, R&D), and 5 μL of the fluorescent substrate peptide were mixed in a black 96-well plate (Nunc). After mixtures were incubated in the dark at 37° C. for 2 hr, the fluorescence intensities of the mixtures were measured by fluorescence microplate reader (Wallac) at 540 nm for excitation and at 590 nm for emission. The inhibition ratio was calculated as a percentage of the negative control. The sequence of the peptide was […] and labeled with fluorescent donor (Cy3) at Ser-1 and with quencher (Cy5Q) at Lys-9, respectively (Invitrogen).

recombinant human BACE-1, sequence (P56817 46-501): as above

SMILES | inhibitory effect on BACE-1 activity (IC50 shown in FIG. 2) (recombinant human BACE-1) | melting point | MEC, minimal effective concentration (cytoprotection) [1] | IC50 (Aβ1-42) | inhibition of BACE-1 enzyme activity (inhibitory activities (%) shown in FIG. 1) [2]
O=C(/C=C/c1ccc(O)cc1)CC(=O)/C=C/c1cc(OCc2ccccc2)ccc1[N+](=O)[O-] [CU475, (1E,6E)-1-(5-benzyloxy-2-nitrophenyl)-7-(4-hydroxyphenyl)hepta-1,6-diene-3,5-dione] | inhibitory effect on BACE-1 activity at relatively low concentration | 168 to 172 °C | – | – | –
O=C(/C=C/c1ccc(O)cc1)CC(=O)/C=C/c1cc(O)ccc1[N+](=O)[O-] [CU131, (1E,6E)-1-(4-hydroxyphenyl)-7-(5-hydroxy-2-nitrophenyl)hepta-1,6-diene-3,5-dione] | inhibitory effect on BACE-1 activity at relatively low concentration | 187 to 194 °C | – | – | –
COc1ccc(/C=C/C(=O)CC(=O)/C=C/c2cc(O)ccc2[N+](=O)[O-])cc1O [CU133, (1E,6E)-1-(3-hydroxy-4-methoxyphenyl)-7-(5-hydroxy-2-nitrophenyl)hepta-1,6-diene-3,5-dione] | inhibitory effect on BACE-1 activity at relatively low concentration | 107 to 111 °C | – | – | –
O=C(/C=C/c1ccc2ccn(Cc3ccccc3)c2c1)CC(=O)CCc1ccc(O)cc1 [CU520, (E)-1-(1-benzyl-1H-indol-6-yl)-7-(4-hydroxyphenyl)hept-1-ene-3,5-dione] | inhibitory effect on BACE-1 activity at relatively low concentration | 45 to 50 °C | – | – | –
O=C(/C=C/c1ccc(O)cc1)CC(=O)/C=C/c1cc(OCc2ccccc2)ccc1Br [CU531, (1E,6E)-1-(5-benzyloxy-2-bromophenyl)-7-(4-hydroxyphenyl)hepta-1,6-diene-3,5-dione] | inhibitory effect on BACE-1 activity at relatively low concentration | – | – | – | –
O=C(/C=C/c1ccc(O)cc1)CC(=O)/C=C/c1cc(O)cc(O)c1 [CU092, (1E,6E)-1-(3,5-dihydroxyphenyl)-7-(4-hydroxyphenyl)hepta-1,6-diene-3,5-dione] | – | 238 to 241 °C | 3.0 µM | – | –
O=C(/C=C/c1cc(O)ccc1[N+](=O)[O-])CC(=O)CCc1ccc(O)cc1 [CU530, (E)-1-(5-hydroxy-2-nitrophenyl)-7-(4-hydroxyphenyl)hept-1-ene-3,5-dione] | inhibitory effect on BACE-1 activity at relatively low concentration | 62 to 70 °C | – | – | –
COc1cc(/C=C/C(=O)CC(=O)/C=C/c2ccc(O)c(OC)c2)ccc1O [curcumin, reference compound] | – | – | 10 µM | – | –
COc1cc(/C=C/C(=O)CC(=O)/C=C/c2cc(O)ccc2[N+](=O)[O-])ccc1O [CU132, (1E,6E)-1-(4-hydroxy-3-methoxyphenyl)-7-(5-hydroxy-2-nitrophenyl)hepta-1,6-diene-3,5-dione] | inhibitory effect on BACE-1 activity at relatively low concentration | 147 to 152 °C | – | – | –
O=C(/C=C/c1ccc(O)cc1)CC(=O)/C=C/c1ccccc1O [CU080, (1E,6E)-1-(2-hydroxyphenyl)-7-(4-hydroxyphenyl)hepta-1,6-diene-3,5-dione] | – | – | 1.0 µM | – | –
Cc1ccc(/C=C/C(=O)CC(=O)/C=C/c2ccc(O)cc2)cc1C [CU056, (1E,6E)-1-(3,4-dimethylphenyl)-7-(4-hydroxyphenyl)hepta-1,6-diene-3,5-dione] | – | 150 to 152 °C | – | 280 nM | –
O=C(/C=C/c1ccc(O)cc1)CC(=O)/C=C/c1c[nH]c2cccc([N+](=O)[O-])c12 [CU461, (1E,6E)-1-(4-hydroxyphenyl)-7-(4-nitro-1H-indol-3-yl)hepta-1,6-diene-3,5-dione] | inhibitory effect on BACE-1 activity at relatively low concentration | 228 to 232 °C | – | – | –
COc1ccc(O)cc1/C=C/C(=O)CC(=O)/C=C/c1ccc(O)cc1 [CU177, (1E,6E)-1-(4-hydroxyphenyl)-7-(5-hydroxy-2-methoxyphenyl)hepta-1,6-diene-3,5-dione] | – | 183 to 186 °C | – | 1100 nM | –
O=C(/C=C/c1cc(O)ccc1[N+](=O)[O-])CC(=O)/C=C/c1cc(O)ccc1[N+](=O)[O-] [CU381, (1E,6E)-1,7-bis(5-hydroxy-2-nitrophenyl)hepta-1,6-diene-3,5-dione] | inhibitory effect on BACE-1 activity at relatively low concentration | 253 to 262 °C | – | – | –
O=C(/C=C/c1ccc(O)cc1)CC(=O)/C=C/c1cc(O)ccc1Br [CU532, (1E,6E)-1-(2-bromo-5-hydroxyphenyl)-7-(4-hydroxyphenyl)hepta-1,6-diene-3,5-dione] | inhibitory effect on BACE-1 activity at relatively low concentration | 182 to 186 °C | – | – | –
COc1cc(N(C)C)ccc1/C=C/C(=O)CC(=O)/C=C/c1ccc(O)cc1 [CU153, (1E,6E)-1-(4-dimethylamino-2-methoxyphenyl)-7-(4-hydroxyphenyl)hepta-1,6-diene-3,5-dione] | – | 100 to 105 °C | – | 880 nM | –
CCn1c2ccccc2c2cc(/C=C/C(=O)CC(=O)/C=C/c3ccc(O)c(OC)c3)ccc21 [CU017, (1E,6E)-1-(9-ethyl-9H-carbazol-3-yl)-7-(4-hydroxy-3-methoxyphenyl)hepta-1,6-diene-3,5-dione] | – | 165 to 169 °C | – | – | strongly inhibited
COc1ccc(/C=C/C(=O)CC(=O)/C=C/c2ccc3[nH]ccc3c2)cc1O [CU193, (1E,6E)-1-(3-hydroxy-4-methoxyphenyl)-7-(1H-indol-5-yl)hepta-1,6-diene-3,5-dione] | – | 182 to 185 °C | – | – | strongly inhibited
O=C(/C=C/c1ccc(O)cc1)CC(=O)/C=C/c1cccc(O)c1 [CU078, (1E,6E)-1-(3-hydroxyphenyl)-7-(4-hydroxyphenyl)hepta-1,6-diene-3,5-dione] | – | 217 °C | 0.1 µM | 90 nM | –
COc1cc(/C=C/C(=O)CC(=O)/C=C/c2cccc(O)c2OC)ccc1O [CU001, (1E,6E)-1-(3-hydroxy-2-methoxyphenyl)-7-(4-hydroxy-3-methoxyphenyl)hepta-1,6-diene-3,5-dione] | – | 152 to 155 °C | – | – | strongly inhibited
O=C(/C=C/c1ccc(O)cc1)CC(=O)/C=C/c1ccc2cc[nH]c2c1 [CU189, (1E,6E)-1-(4-hydroxyphenyl)-7-(1H-indol-6-yl)hepta-1,6-diene-3,5-dione] | inhibitory effect on BACE-1 activity at relatively low concentration | 238 to 243 °C | – | – | strongly inhibited
COc1ccc(/C=C/C(=O)CC(=O)/C=C/c2ccc(O)cc2)c2ccccc12 [CU116, (1E,6E)-1-(4-hydroxyphenyl)-7-(4-methoxynaphthalen-1-yl)hepta-1,6-diene-3,5-dione] | – | 193 to 198 °C | – | – | strongly inhibited
